In patent US12414952B2 (Merck Sharp & Dohme LLC, priority 2018, dated 2025):

Tests used:
[1] = biological target: human A2a adenosine receptor (Homo sapiens (Human), UniProt P29274); assay: A2a binding affinity using radioligand binding, Method (A); settings: Method (A): [3H]SCH58261 filtration binding
From the text: The A2a receptor affinity binding assay measured the amount of binding of a tritiated ligand with high affinity for the A2a adenosine receptor to membranes made from HEK293 or CHO cells recombinantly expressing the human A2a adenosine receptor, in the presence of varying concentrations of a compound of the invention. The data were generated using either filtration binding or a homogenous scintillation proximity assay (SPA).
Method (A): Measurement of A2a Binding Affinity Using Radioligand Binding
148 μL (5 μg/mL) membranes (Perkin Elmer, Cat. No. RBHA2aM400UA) and 2 μL compounds of the invention to be tested (test compound) were transferred to individual wells of a 96-well polypropylene assay plate and incubated for 15 to 30 min at room temperature. [^3H] SCH58261 ((7-(2-phenylethyl)-5-amino-2-(2-furyl)-pyrazolo-[4,3-e]-1,2,4-triazolo[1,5-c]pyrimidine)) was diluted in assay buffer (50 mM Tris pH 7.4, 10 mM MgCl2, 0.005% Tween20) to a concentration of 4 nM and 50 μL transferred to each well of the assay plate. […] The assay plate was incubated at room temperature for 60 min with agitation. […] Filtering was achieved by aspirating the contents of the assay plate for 5 sec, then washing and aspirating the contents three times with ice-cooled wash buffer (50 mM Tris-HCl pH 7.4, 150 mM NaCl) and allowing the vacuum manifold to dry the plate for […]. The filter plate was incubated for at least 1 h at 55° C. and allowed to dry. The bottom of the filter plate was sealed with backing tape. […] The plate was incubated for at least 20 min, and then the amount of radioactivity remaining in each well was determined using a TopCount® (Perkin Elmer) scintillation counter. After normalization to total and non-specific binding, the percent effect at each compound concentration was calculated. The plot of percent effect versus the log of compound concentration was analyzed electronically using a 4-parameter logistic fit based on the Levenberg-Marquardt algorithm to generate IC50 values.

[2] = biological target: human A2b adenosine receptor (Homo sapiens (Human), UniProt P29275); assay: A2b binding affinity, radioligand filtration binding assay; settings: tritiated proprietary A2b antagonist, HEK293 membranes
Experimental: Measurement of A2b Binding Affinity
The reported affinity of the compounds of the invention for the human A2b adenosine receptor was determined experimentally using a radioligand filtration binding assay. This assay measures the amount of binding of a tritiated proprietary A2b receptor antagonist, in the presence and absence of a compound of the invention, to membranes made from HEK293 cells recombinantly expressing the human A2b adenosine receptor (Perkin Elmer, Cat. No. ES-013-C).
The filter plate was incubated for at least 1 h at 55° C. and allowed to dry. The bottom of the filter plate was then sealed with backing tape. […] The plates were then incubated for at least 20 min, and then the amount of radioactivity remaining in each well was determined using a TopCount® (Perkin Elmer) scintillation counter. After normalization to total and non-specific binding, the percent effect at each compound concentration was calculated. The plot of percent effect versus the log of compound concentration was analyzed electronically using a 4-parameter logistic fit based on the Levenberg-Marquardt algorithm to generate IC50 values.

human A2b adenosine receptor, sequence (P29275 whole entry): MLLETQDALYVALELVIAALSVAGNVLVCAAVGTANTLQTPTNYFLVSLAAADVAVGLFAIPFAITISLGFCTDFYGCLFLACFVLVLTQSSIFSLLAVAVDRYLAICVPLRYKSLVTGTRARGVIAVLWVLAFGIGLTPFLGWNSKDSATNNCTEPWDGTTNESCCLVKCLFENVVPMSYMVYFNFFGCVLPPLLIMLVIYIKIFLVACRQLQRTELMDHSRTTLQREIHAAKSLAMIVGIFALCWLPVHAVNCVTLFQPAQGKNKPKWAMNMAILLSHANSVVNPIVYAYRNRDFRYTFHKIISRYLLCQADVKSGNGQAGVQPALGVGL
human A2a adenosine receptor, sequence (P29274 whole entry): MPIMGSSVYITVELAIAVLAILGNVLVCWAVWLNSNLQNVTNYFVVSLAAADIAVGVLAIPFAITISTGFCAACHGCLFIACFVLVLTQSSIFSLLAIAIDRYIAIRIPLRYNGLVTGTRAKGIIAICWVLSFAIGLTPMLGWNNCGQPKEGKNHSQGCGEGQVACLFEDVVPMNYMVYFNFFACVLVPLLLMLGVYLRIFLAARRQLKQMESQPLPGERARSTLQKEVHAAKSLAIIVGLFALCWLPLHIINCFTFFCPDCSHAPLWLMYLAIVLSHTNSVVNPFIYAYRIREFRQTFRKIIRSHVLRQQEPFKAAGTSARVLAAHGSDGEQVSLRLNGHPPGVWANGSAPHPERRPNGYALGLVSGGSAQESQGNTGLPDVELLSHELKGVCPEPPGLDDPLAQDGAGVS

| SMILES | IC50 [1] [µM] | IC50 [2] [µM] |
| --- | --- | --- |
| Cc1c(-c2ncco2)nc(N)n2nc(CCN3Cc4nnn(C(C)C)c4C(C)C3)nc12 (single isomer, unassigned) [Example 17.8-1, (R or S)-2-(2-(1-isopropyl-7-methyl-1,4,6,7-tetrahydro-5H-[1,2,3]triazolo[4,5-c]pyridin-5-yl)ethyl)-8-methyl-7-(oxazol-2-yl)-[1,2,4]triazolo[1,5-c]pyrimidin-5-amine] | 0.0007 | 1.68 |
| Cc1c(-c2ncco2)nc(N)n2nc(CCN3CCn4c(cnc4C(C)C)C3)nc12 [Example 1.10] | 0.0021 | 0.0162 |
| Cc1c(-c2ncco2)nc(N)n2nc(CCN3CCc4c(cnn4C4CCC4)C3)nc12 [Example 1.13] | 0.001 | 0.144 |
| Cc1c(-c2ncco2)nc(N)n2nc(CCN3CCc4c(nnn4C(C)C)C3)nc12 [Example 1.15] | 0.0001 | 0.402 |
| Cc1c(-c2ncco2)nc(N)n2nc(CCN3CCc4c(nnn4C4CC4)C3)nc12 [Example 1.16] | 0.0003 | 0.111 |
| Cc1c(-c2cccc(F)c2)nc(N)c2nc(CCN3CCn4c(cnc4C(C)C)C3)nn12 [Example 2.8] | 0.16 | 0.0481 |
| COc1c(F)cc(F)cc1-c1cc2nc(CCN3CCn4c(cnc4C(C)C)C3)nn2c(N)n1 [Example 2.9] | 0.636 | 0.248 |
| CC(C)c1ncc2n1CCN(CCc1nc3cc(-c4cc(F)ccc4F)nc(N)n3n1)C2 [Example 2.11] | 0.246 | 0.178 |
| CC(C)c1ncc2n1CCN(CCc1nc3cc(-c4cc(F)ccc4Cl)nc(N)n3n1)C2 [Example 2.12] | 0.44 | 0.215 |
| CC(C)c1ncc2n1CCN(CCc1nc3cc(-c4cccc(F)c4)nc(N)n3n1)C2 [Example 2.13] | 0.0354 | 0.0955 |
| CC(C)c1ncc2n1CCN(CCc1nc3cc(-c4cc(F)cc(F)c4)nc(N)n3n1)C2 [Example 2.14] | 0.362 | 0.223 |
| CC(C)n1nnc2c1CCN(CCc1nc3cc(-c4cccc(C#N)c4F)nc(N)n3n1)C2 [Example 2.24] | 0.0009 | 0.0736 |
| Cc1c(-c2cccc(Cl)c2)nc(N)c2nc(Cc3ccccc3)nn12 [Example 3.23] | 0.0027 | 0.0136 |
| Cc1c(-c2cc(Cl)ccc2F)nc(N)c2nc(Cc3ccccc3)nn12 [Example 3.24] | 0.0007 | 0.0024 |
| Cc1c(-c2cc(F)cc(F)c2F)nc(N)c2nc(Cc3ccccc3)nn12 [Example 3.26] | 0.0025 | 0.0027 |
| COc1ncc(-c2nc(N)c3nc(Cc4ccccc4)nn3c2C)cc1Cl [Example 3.27] | 0.011 | 0.145 |
| Cc1c(-c2cc(F)cc(Cl)c2)nc(N)c2nc(Cc3ccccc3)nn12 [Example 3.28] | 0.0029 | 0.0344 |
| Cc1c(-c2cccc(F)c2F)nc(N)c2nc(Cc3ccccc3)nn12 [Example 3.29] | 0.004 | 0.0394 |
| COc1cc(F)cc(-c2nc(N)c3nc(Cc4ccccc4)nn3c2C)c1 [Example 3.31] | 0.0062 | 0.134 |
| Cc1c(-c2ccc(F)c(Cl)c2)nc(N)c2nc(Cc3ccccc3)nn12 [Example 3.33] | 0.0272 | 0.117 |
| Cc1c(-c2cc(F)ccc2Cl)nc(N)c2nc(Cc3ccccc3)nn12 [Example 3.38] | 0.0976 | 0.0857 |
| Cc1c(-c2cccc(F)c2Cl)nc(N)c2nc(Cc3ccccc3)nn12 [Example 3.41] | 0.289 | 0.747 |
| COc1ccc(F)cc1-c1nc(N)c2nc(Cc3ccccc3)nn2c1C [Example 3.43] | 0.611 | 2.52 |
| Cc1c(-c2ccn(C)n2)nc(N)c2nc(Cc3ccccc3)nn12 [Example 3.46] | 0.0044 | 0.0826 |
| Cc1cccnc1Cc1nc2c(N)nc(-c3cc(F)ccc3F)c(C)n2n1 [Example 4.3, 6-(2,5-difluorophenyl)-5-methyl-2-((3-methylpyridin-2-yl)methyl)-[1,2,4]triazolo[1,5-a]pyrazin-8-amine] | 0.0099 | 0.0473 |
| Cc1c(-c2ncco2)nc(N)n2nc(CCc3ccc4c(c3)nnn4C3CC(F)(F)C3)nc12 [Example 22.3, 2-(2-(1-(3,3-Difluorocyclobutyl)-1H-benzo[d][1,2,3]triazol-5-yl)ethyl)-8-methyl-7-(oxazol-2-yl)-[1,2,4]triazolo[1,5-c]pyrimidin-5-amine] | 0.0215 |  |

Further compounds by falling IC50 [1], results first:

| IC50 [1] [µM] | IC50 [2] [µM] | SMILES |
| --- | --- | --- |
| 1 | 0.4 | CC(C)c1ncc2n1CCN(CCc1nc3cc(-c4cc(F)ccc4O)nc(N)n3n1)C2 [Example 2.10] |
| 1 | 3.71 | Cc1ccc(-c2nc(N)c3nc(Cc4ccccc4)nn3c2C)cc1F [Example 3.37] |
| 0.836 | 8.7 | Cc1c(-c2cncc(C(F)(F)F)c2)nc(N)c2nc(Cc3ccccc3)nn12 [Example 3.22] |
| 0.499 | 1.73 | Cc1c(-c2ccc(C#N)c(F)c2)nc(N)c2nc(Cc3ccccc3)nn12 [Example 3.42] |
| 0.28 | 0.315 | Cc1c(-c2ccc(F)c(F)c2F)nc(N)c2nc(Cc3ccccc3)nn12 [Example 3.40] |
| 0.127 | 0.905 | CC(C)c1ncc2n1CCN(CCc1nc3cc(-c4ncco4)nc(N)n3n1)C2 [Example 1.19] |
| 0.0985 | 1.02 | Cc1c(F)cccc1-c1nc(N)c2nc(Cc3ccccc3)nn2c1C [Example 3.39] |
| 0.0765 | 0.154 | Cc1c(-c2cc(F)c(F)c(F)c2)nc(N)c2nc(Cc3ccccc3)nn12 [Example 3.36] |
| 0.0656 | 0.7 | Cc1ccc(F)cc1-c1nc(N)c2nc(Cc3ccccc3)nn2c1C [Example 3.35] |
| 0.0353 | 0.0076 | Cc1c(-c2ncco2)nc(N)n2nc(Cc3ccc4c(c3)ncn4CC(F)F)nc12 [Example 4.7] |
| 0.0322 | 0.0958 | Cc1c(-c2cc(F)c(F)cc2F)nc(N)c2nc(Cc3ccccc3)nn12 [Example 3.34] |
| 0.0238 | 0.0318 | Cc1c(-c2cc(F)ccc2F)nc(N)c2nc(Cc3cccc4c3ncn4CC(F)F)nn12 [Example 4.5] |
| 0.0228 | 0.026 | Cc1c(-c2cc(F)ccc2F)nc(N)c2nc(Cc3ccc(F)cn3)nn12 [Example 4.4] |
| 0.0181 | 0.695 | Cc1c(-c2ncco2)nc(N)n2nc(CCN3CCc4c(nnn4CC(C)(C)O)C3)nc12 [Example 1.18] |
| 0.0164 | 0.0368 | Cc1c(-c2cccc(F)c2)nc(N)n2nc(CCN3CCn4c(cnc4C(C)C)C3)nc12 [Example 2.15] |
| 0.0131 | 0.147 | Cc1c(-c2cncc(Cl)c2)nc(N)c2nc(Cc3ccccc3)nn12 [Example 3.32] |
| 0.0076 | 0.0462 | Cc1c(-c2cccc(Cl)c2F)nc(N)c2nc(Cc3ccccc3)nn12 [Example 3.30] |
| 0.0067 | 0.399 | Cc1c(-c2ncco2)nc(N)n2nc(CCN3CCc4nn(C5CCC5)cc4C3)nc12 [Example 1.14] |
| 0.0048 | 0.218 | Cc1c(-c2ncco2)nc(N)n2nc(CCN3CCn4c(cnc4C4CC4)C3)nc12 [Example 1.12] |
| 0.0036 | 0.0563 | Cc1c(-c2ncco2)nc(N)n2nc(CCN3CCn4c(cnc4C4CCC4)C3)nc12 [Example 1.11] |
| 0.0023 | 0.014 | Cc1c(-c2ncco2)nc(N)n2nc(CCN3Cc4nnn(C(C)C)c4C(C)C3)nc12 (single isomer, unassigned) [Example 17.8-2, (R or S)-2-(2-(1-isopropyl-7-methyl-1,4,6,7-tetrahydro-5H-[1,2,3]triazolo[4,5-c]pyridin-5-yl)ethyl)-8-methyl-7-(oxazol-2-yl)-[1,2,4]triazolo[1,5-c]pyrimidin-5-amine] |
| 0.0023 | 0.0734 | Cc1c(-c2cccc(F)c2)nc(N)n2nc(CCN3CCc4c(nnn4C(C)C)C3)nc12 [Example 2.16] |
| 0.0016 | 0.0198 | Cc1c(-c2cc(F)cc(F)c2)nc(N)c2nc(Cc3ccccc3)nn12 [Example 3.25] |
| 0.0013 | 0.0352 | Cc1c(-c2ncco2)nc(N)n2nc(CCN3CCc4c(nnn4CC(F)(F)F)C3)nc12 [Example 1.17] |
